Assay results published in article PMC6220894 (Food and chemical toxicology : an international journal …, 2018).
Like-named read-outs stand apart in the source and are kept apart here.

Key:
[1] = test system: Salmonella typhimurium TA 98; assay: Ames bacterial reverse mutation assay, pre-incubation method; format: cell-based
[2] = test system: Salmonella typhimurium TA 1535; format: cell-based; details: pre-incubation
[3] = test system: Salmonella typhimurium TA 102; assay: Ames bacterial reverse mutation assay, pre-incubation method; format: cell-based
[4] = test system: Salmonella typhimurium TA 1537; assay: as above; format: cell-based
[5] = test system: Salmonella typhimurium TA 102; assay: Ames bacterial reverse mutation assay, plate incorporation method; format: cell-based
[6] = test system: Salmonella typhimurium TA 98; assay: as above; format: cell-based
[7] = test system: Salmonella typhimurium TA 100; format: cell-based; details: pre-incubation
[8] = test system: Salmonella typhimurium TA 1537; assay: Ames bacterial reverse mutation assay, plate incorporation method; format: cell-based
[9] = test system: Salmonella typhimurium TA 100; format: cell-based; details: plate incorporation
[10] = test system: Salmonella typhimurium TA 1535; format: cell-based; details: plate incorporation
plasma protein = details: human plasma; 1 µM; mean ± SE
in vitro = details: both, human, plasma, pH 7.4
[11] = +S9, positive control 0.0025 mg/plate
[12] = +S9, positive control 0.01 mg/plate
[13] = −S9, positive control 0.01 mg/plate
[14] = −S9, positive control 0.05 mg/plate
[15] = −S9, positive control 4 µL/plate

Nc1ccc2cc3ccccc3cc2c1 [2-aminoanthracene, reference compound]
Mean plate counts (revertant colonies) [1, 11]: 958.0±83.6 | Mean plate counts (revertant colonies) [2, 11]: 132.7±9.9 | Mean plate counts (revertant colonies) [3, 12]: 1395.3±153.1 | Mean plate counts (revertant colonies) [4, 11]: 125.0±5.0 | Mean plate counts (revertant colonies) [5, 12]: 1716.7±134.6 | Mean plate counts (revertant colonies) [6, 11]: 741.3±63.8 | Mean plate counts (revertant colonies) [7, 11]: 1118.0±42.6 | Mean plate counts (revertant colonies) [8, 11]: 133.3±8.1 | Mean plate counts (revertant colonies) [9, 11]: 1042.0±61.3 | Mean plate counts (revertant colonies) [10, 11]: 150.0±12.5

Nc1ccc([N+](=O)[O-])cc1N [4-NOPD, 4-nitro-o-phenylenediamine, reference compound]
Mean plate counts (revertant colonies) [1, 13]: 674.0±34.7 | Mean plate counts (revertant colonies) [4, 14]: 120.0±12.0 | Mean plate counts (revertant colonies) [6, 13]: 296.0±8.0 | Mean plate counts (revertant colonies) [8, 14]: 107.0±6.2

COc1ccc(CCN(C)CCCC(C#N)(c2ccc(OC)c(OC)c2)C(C)C)cc1OC (stereo not shown) [Verapamil, reference compound]
fb (bound fraction) (plasma protein): 0.907 ± 0.007

CC(=O)CC(c1ccccc1)c1c(O)c2ccccc2oc1=O (stereo not shown) [Warfarin, reference compound]
fraction unbound at 4 h, 1 µM (in vitro): 0.035 ± 0.003

COS(C)(=O)=O [methyl methanesulphonate, methyl methanesulfonate, reference compound]
Mean plate counts (revertant colonies) [3, 15]: 1238.7±126.0 | Mean plate counts (revertant colonies) [5, 15]: 2510.7±123.6

[N-]=[N+]=[N-].[Na+] [sodium azide, reference compound]
Mean plate counts (revertant colonies) [2, 13]: 974.7±41.1 | Mean plate counts (revertant colonies) [7, 13]: 1181.3±50.6 | Mean plate counts (revertant colonies) [9, 13]: 870.7±39.3 | Mean plate counts (revertant colonies) [10, 13]: 966.7±12.2
